Test results from patent US20150337013A1, “NOVEL ANTIBACTERIAL AGENTS FOR THE TREATMENT OF GRAM POSITIVE INFECTIONS” (priority 2008, published 2015).
Several values for one entry are separate records, joined by “and”; a condition that tells them apart may be missing. Equal values may be shown once.

What was measured:
[1] = test system: daptomycin resistant Staph. aureus (DRSA), daptomycin resistant E. faecium (DREfm) and daptomycin resistance E. faecalis (DREfs); test: Activity against daptomycin resistant bacteria, summary statement; type: cell-based; settings: statement in words
Procedure: (§1) Compounds according to Formula I were tested for antimicrobial activity against a panel of organisms. Aerobic organisms, Staphylococcus aureus, Enterococcus faecalis and E. faecium, were tested by broth microdilution according to Clinical and Laboratory Standards Institute (CLSI) document M7-A7 (Clinical and Laboratory Standards Institute. Methods for Dilution Antimicrobial Susceptibility Tests for Bacteria that Grow Aerobically; Approved Standard—Seventh Edition. CLSI document M7-A7 [ISBN 1-56238-587-9]. Clinical and Laboratory Standards Institute, 940 West Valley Road, Suite 1400, Wayne, Pa. 19087-1898 USA, 2006) with modifications as described below. Mueller Hinton Broth (MHBc) was supplemented with 50 mg/L calcium (equivalent to human physiological levels of calcium) and assay plates were incubated 18-20 hours at 37° C. with aeration (200 rpm).
(§2) In all cases the final concentration of dimethyl sulfoxide incubated with cells is less than or equal to 1%. For minimum inhibitory concentration (MIC) calculations, 2-fold dilutions of compounds were added to wells of a microtiter plate containing 5×10^5 bacteria in a final volume of 100 μL of media. Following incubation, (18-20 hours at 37° C. with aeration at 200 rpm) growth was confirmed visually by placing plates over a viewing apparatus (stand with a mirror underneath) and then the optical density (OD600) was measured using a SpectraMax 340PC^384 plate reader. Growth was defined as turbidity that could be detected with the naked eye or achieving minimum OD600of 0.1. MIC values (in μg/mL) were defined as the lowest concentration producing no visible turbidity.

[2] = test system: C. difficile spores (ATCC #43596); test: Hamster C. difficile infection (CDAD) protection model; type: in vivo, Syrian golden hamsters; settings: oral 0.5 mg/kg once daily for 5 days (MET 70 mg/kg three times daily for 5 days)
Procedure: Syrian golden hamsters were pretreated with 10 mg/kg clindamycin subcutaneously 24 hours before bacterial challenge. An inoculum of 20 C. difficile spores (ATCC #43596) in sterile saline was administered orally. Treatment was initiated 4 hours post-inoculation with dH2O, metronidazole (MET), vancomycin (VAN), or a compound of the present invention. Oral dosing regimens for VAN and compounds of Formula I were 0.5 mg/kg once daily for 5 days. MET was administered at 70 mg/kg three times daily for 5 days. CDAD was confirmed as the cause of death by observations at necropsy, including wet tail and/or macroscopic cecal alterations. The % protection provided by each therapy tested was calculated at 1 and 21 days post-dosing.

[3] = test system: gram positive bacteria; test: Antimicrobial activity against a panel of organisms, summary statements; type: cell-based; settings: statement in words
Procedure: as §1, §2

[4] = test system: Enterococcus faecalis EFS.312, Daptomycin resistant mutant (EFA); type: cell-based; settings: MHBc with 50 mg/L calcium, 18-20 hours at 37° C.
Outline: (§3)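 MIC in μg/mL, taken as the lowest compound concentration producing no visible turbidity after 18-20 hours at 37° C with shaking at 200 rpm. Organisms were grown in calcium-supplemented (50 mg/L) Mueller Hinton broth at 5×10^5 bacteria per well.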

[5] = test system: Enterococcus faecium EFM.384, Daptomycin resistant mutant (14-A); type: cell-based; settings: MHBc with 50 mg/L calcium, 18-20 hours at 37° C.
Outline: as §3

[6] = test system: Clostridium difficile
[7] = test system: Staphylococcus aureus SAU.278, Daptomycin resistant mutant (D10); type: cell-based; settings: MHBc with 50 mg/L calcium, 18-20 hours at 37° C.
Outline: as §3

[8] = test system: NAP1 Clostridium difficile strain
[9] = test system: Staphylococcus aureus SAU.42 (ATCC 29213); type: cell-based; settings: ATCC 29213
Outline: as §3

[10] = test system: Staphylococcus aureus SAU.399 (ATCC 43300), Methicillin and Oxacillin Resistant; type: cell-based; settings: MHBc with 50 mg/L calcium, 18-20 hours at 37° C.
Outline: as §3

[11] = test system: Enterococcus faecalis EFS.201 (ATCC 49452); type: cell-based; settings: ATCC 49452
Outline: as §3

| SMILES | useful against daptomycin resistant strains of bacteria [1] | Mean % Protection 1 Day Post Dosing [2] | Mean % Protection 21 Days Post Dosing [2] | as active or more active than daptomycin [3] | more active against bacteria than daptomycin [3] | Efs312 MIC [4] | Efm384 MIC [5] | C. diff MIC90 [6] | Sa278 MIC [7] | C. diff MIC50 Nap-1 [8] | C. diff MIC90 Nap-1 [8] | Sa42 MIC [9] | Sa399 MIC [10] | Efs201 MIC [11] |
| --- | --- | --- | --- | --- | --- | --- | --- | --- | --- | --- | --- | --- | --- | --- |
| CCCCCCCCc1ccc(C(=O)N[C@@H](Cc2c[nH]c3ccccc23)C(=O)N[C@H](CC(N)=O)C(=O)N[C@@H](CC(=O)O)C(=O)N[C@@H]2C(=O)NCC(=O)N[C@@H](CCCN)C(=O)N[C@@H](CC(=O)O)C(=O)N[C@H](C)C(=O)N[C@@H](CC(=O)O)C(=O)NCC(=O)N[C@H](CO)C(=O)N[C@@H]([C@H](C)CC(=O)O)C(=O)N[C@@H](CC(=O)c3ccccc3N)C(=O)O[C@@H]2C)cc1 [Compound 34, N-(4-octylbenzoyl)-L-tryptophyl-D-asparaginyl-L-α-aspartyl-L-threonylglycyl-L-ornithyl-L-α-aspartyl-D-alanyl-L-α-aspartylglycyl-D-seryl-(3R)-3-methyl-L-α-glutamyl-(αS)-α,2-diamino-γ-oxobenzenebutanoic acid (13→4)-lactone] | useful against daptomycin resistant strains of bacteria | 85% | 38% | as active or more active than daptomycin | more effective than daptomycin | 4 µg/mL and 8 µg/mL | 2 µg/mL and 4 µg/mL | 1 µg/mL | – | – | – | – | – | – |
| CCCCCc1ccc(/C(C)=C/C(=O)N[C@@H](Cc2c[nH]c3ccccc23)C(=O)N[C@H](CC(N)=O)C(=O)N[C@@H](CC(=O)O)C(=O)N[C@@H]2C(=O)NCC(=O)N[C@@H](CCCN)C(=O)N[C@@H](CC(=O)O)C(=O)N[C@H](C)C(=O)N[C@@H](CC(=O)O)C(=O)NCC(=O)N[C@H](CO)C(=O)N[C@@H]([C@H](C)CC(=O)O)C(=O)N[C@@H](CC(=O)c3ccccc3N)C(=O)O[C@@H]2C)cc1 [Compound 49, N-{1-[(E)-3-(4-pentylphenyl)but-2-enoyl]}-L-tryptophyl-D-asparaginyl-L-α-aspartyl-L-threonylglycyl-L-ornithyl-L-α-aspartyl-D-alanyl-L-α-aspartylglycyl-D-seryl-(3R)-3-methyl-L-α-glutamyl-(αS)-α,2-diamino-γ-oxobenzenebutanoic acid (13→4)-lactone] | – | – | – | – | – | 8 µg/mL and 4 µg/mL | 4 µg/mL | – | 1 µg/mL | 0.25 µg/mL | 0.50 µg/mL | – | – | – |
| CCCCCC12CCC(C(=O)N[C@@H](Cc3c[nH]c4ccccc34)C(=O)N[C@H](CC(N)=O)C(=O)N[C@@H](CC(=O)O)C(=O)N[C@@H]3C(=O)NCC(=O)N[C@@H](CCCN)C(=O)N[C@@H](CC(=O)O)C(=O)N[C@H](C)C(=O)N[C@@H](CC(=O)O)C(=O)NCC(=O)N[C@H](CO)C(=O)N[C@@H]([C@H](C)CC(=O)O)C(=O)N[C@@H](CC(=O)c4ccccc4N)C(=O)O[C@@H]3C)(CC1)CC2 [Compound 22, N-(4-pentylbicyclo[2.2.2]octane-1-carbonyl)-L-tryptophyl-D-asparaginyl-L-α-aspartyl-L-threonylglycyl-L-ornithyl-L-α-aspartyl-D-alanyl-L-α-aspartylglycyl-D-seryl-(3R)-3-methyl-L-α-glutamyl-(αS)-α,2-diamino-γ-oxobenzenebutanoic acid (13→4)-lactone] | useful against daptomycin resistant strains of bacteria | 85% | 38% | as active or more active than daptomycin | – | – | – | 1 µg/mL | – | – | – | – | – | – |
| CCCCCCCc1ccc(C(=O)N[C@@H](Cc2c[nH]c3ccccc23)C(=O)N[C@H](CC(N)=O)C(=O)N[C@@H](CC(=O)O)C(=O)N[C@@H]2C(=O)NCC(=O)N[C@@H](CCCN)C(=O)N[C@@H](CC(=O)O)C(=O)N[C@H](C)C(=O)N[C@@H](CC(=O)O)C(=O)NCC(=O)N[C@H](CO)C(=O)N[C@@H]([C@H](C)CC(=O)O)C(=O)N[C@@H](CC(=O)c3ccccc3N)C(=O)O[C@@H]2C)cc1 [Compound 33, N-(4-heptylbenzoyl)-L-tryptophyl-D-asparaginyl-L-α-aspartyl-L-threonylglycyl-L-ornithyl-L-α-aspartyl-D-alanyl-L-α-aspartylglycyl-D-seryl-(3R)-3-methyl-L-α-glutamyl-(αS)-α,2-diamino-γ-oxobenzenebutanoic acid (13→4)-lactone] | useful against daptomycin resistant strains of bacteria | 85% | 69% | as active or more active than daptomycin | more effective than daptomycin | – | 4 µg/mL and 2 µg/mL | – | – | – | – | 0.25 µg/mL | 0.125 µg/mL | 0.5 µg/mL |
